Assay results from ChEMBL document CHEMBL1201862, “PubChem BioAssay data set” (2004).
Active and inactive are the calls of the source.

What was measured:
[1] = target: Mitochondrial peptide methionine sulfoxide reductase (Bos taurus, UniProt P54149); format: functional;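 further: absorbance read-out, biochemical high-throughput dose-response screen for MsrA inhibitors, confirmatory; recombinant bovine MsrA coupled to E. coli TrxB with NADPH and selenocystamine; potency is for inhibitors of MsrA activity on DMSO substrate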
Chain of Mitochondrial peptide methionine sulfoxide reductase (P54149 whole entry): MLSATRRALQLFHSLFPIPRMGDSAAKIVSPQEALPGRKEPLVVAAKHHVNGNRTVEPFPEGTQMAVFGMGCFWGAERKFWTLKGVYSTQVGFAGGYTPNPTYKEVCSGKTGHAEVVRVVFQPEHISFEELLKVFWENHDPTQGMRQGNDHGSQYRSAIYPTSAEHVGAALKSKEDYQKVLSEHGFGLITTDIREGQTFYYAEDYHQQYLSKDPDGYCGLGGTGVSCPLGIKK

BJ [2] = assay: cytotoxicity toward BJ-TERT fibroblasts, dose response, cell-based, RAS-independent, luminescence (AID 1933); format: functional; conditions: Homo sapiens
BJ [3] = assay: cells; format: functional, cell-based; conditions: Homo sapiens
BJ [4] = assay: cytotoxicity toward BJ-TERT-LT-ST fibroblasts, dose response, cell-based, RAS-independent, luminescence (AID 1935); format: functional; conditions: Homo sapiens;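 further: BJ fibroblasts immortalized with TERT plus LT and ST oncogenes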
[5] = cytotoxicity toward DRD oncogenic fibroblasts, dose response, cell-based, non-viral oncogenic, luminescence (AID 1934); format: functional; conditions: Homo sapiens
BJ [6] = assay: cytotoxicity toward Ras-transformed BJeLR fibroblasts, dose response, cell-based, alamar blue fluorescence, cherrypicked samples (AID 2631); format: functional; conditions: Homo sapiens;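 further: confirmatory dose-response assay in RAS-dependent BJ fibroblasts engineered with TERT, LT and ST, with cytotoxicity read by fluorescence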
[7] = target: Adenosylmethionine-8-amino-7-oxononanoate aminotransferase (Mycobacterium tuberculosis, UniProt P9WQ81); assay: Mycobacterium tuberculosis BioA enzyme inhibitor Measured in Biochemical System Using Plate Reader - 2163-02_Inhibitor_Dose_CherryPick_Activity.; format: functional, Mycobacterium tuberculosis UT205
Chain of Adenosylmethionine-8-amino-7-oxononanoate aminotransferase (P9WQ81 whole entry): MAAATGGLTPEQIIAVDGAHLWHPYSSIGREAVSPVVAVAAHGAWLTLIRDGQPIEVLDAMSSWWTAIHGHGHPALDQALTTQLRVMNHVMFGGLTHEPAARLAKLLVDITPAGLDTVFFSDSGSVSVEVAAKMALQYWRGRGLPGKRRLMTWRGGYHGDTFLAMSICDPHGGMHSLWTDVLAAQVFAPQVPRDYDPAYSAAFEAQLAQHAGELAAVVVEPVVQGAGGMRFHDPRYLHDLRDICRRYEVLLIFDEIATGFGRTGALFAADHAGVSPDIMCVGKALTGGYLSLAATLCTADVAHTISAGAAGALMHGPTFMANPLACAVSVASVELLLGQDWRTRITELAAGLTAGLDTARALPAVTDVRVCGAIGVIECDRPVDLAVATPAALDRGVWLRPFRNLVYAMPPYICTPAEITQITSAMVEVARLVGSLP

Cytochrome P450 2C19 = Cytochrome P450 2C19 (Homo sapiens, UniProt P33261); assay: Cytochrome panel assay with activity outcomes. Panel member name: p450-cyp2c19 Compounds with AC50 equal or less than 10 uM are considered active; format: functional; conditions: read-out: AC50
Chain of Cytochrome P450 2C19 (P33261 whole entry): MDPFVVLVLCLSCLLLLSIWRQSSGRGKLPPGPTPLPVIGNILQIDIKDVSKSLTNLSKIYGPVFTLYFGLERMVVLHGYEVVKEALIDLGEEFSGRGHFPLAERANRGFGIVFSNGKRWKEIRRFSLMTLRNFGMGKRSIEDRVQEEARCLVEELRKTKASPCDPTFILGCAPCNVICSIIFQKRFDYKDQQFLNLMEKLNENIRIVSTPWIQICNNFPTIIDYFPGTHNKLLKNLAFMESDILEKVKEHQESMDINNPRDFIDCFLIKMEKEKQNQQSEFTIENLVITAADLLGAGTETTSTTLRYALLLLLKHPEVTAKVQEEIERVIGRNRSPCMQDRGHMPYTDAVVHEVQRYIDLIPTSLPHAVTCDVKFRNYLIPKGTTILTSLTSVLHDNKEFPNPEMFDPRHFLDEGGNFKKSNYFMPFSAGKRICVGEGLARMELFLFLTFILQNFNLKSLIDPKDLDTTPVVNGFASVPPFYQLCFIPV

HEK293 = assay: inhibitors of LMP1-driven NF-kB reporter, dose response, cell-based, HEK293, luciferase, cherry-pick (AID 588343); format: functional; conditions: Homo sapiens
[8] = target: T1, Latent membrane protein 1 (Human herpesvirus 4 (strain B95-8), UniProt P03230); assay: TES1-eGFP NF-kB reporter inhibition versus Tet-On dsRED, dose response, selectivity assay for LMP1 NF-kB inhibitor project, imaging, HEK293T, dual-color eGFP/dsRED, cherry-picks (AID 588398); format: functional, cell-based
T1 sequence (P03230 whole entry): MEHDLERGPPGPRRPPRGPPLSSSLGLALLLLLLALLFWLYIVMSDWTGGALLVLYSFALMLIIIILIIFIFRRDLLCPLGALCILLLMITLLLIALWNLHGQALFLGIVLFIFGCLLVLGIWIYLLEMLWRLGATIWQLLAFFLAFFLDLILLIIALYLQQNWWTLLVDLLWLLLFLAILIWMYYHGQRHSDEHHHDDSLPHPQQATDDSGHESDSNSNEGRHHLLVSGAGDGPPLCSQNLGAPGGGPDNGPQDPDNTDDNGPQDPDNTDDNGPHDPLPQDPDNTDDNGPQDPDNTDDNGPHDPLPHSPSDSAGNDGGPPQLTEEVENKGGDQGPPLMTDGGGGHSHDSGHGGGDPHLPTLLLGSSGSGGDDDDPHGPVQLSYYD

[9] = inhibitors of HIV Env-driven cell fusion, dose response, cherry-pick (AID 652057); format: functional, cell-based
[10] = inhibitors of clade B AD8 Env fusion, dose response, cell-based, cherry-pick (AID 652062); format: functional;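 further: luciferase signal from cell-cell fusion driven by HIV-1 clade B AD8 Env; potency is for inhibitors of fusion seen as a drop in luminescence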
Cytochrome P450 2D6 = Cytochrome P450 2D6 (Homo sapiens, UniProt P10635);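 further: CYP2D6 member of a cytochrome P450 panel assay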
Chain of Cytochrome P450 2D6 (P10635 whole entry): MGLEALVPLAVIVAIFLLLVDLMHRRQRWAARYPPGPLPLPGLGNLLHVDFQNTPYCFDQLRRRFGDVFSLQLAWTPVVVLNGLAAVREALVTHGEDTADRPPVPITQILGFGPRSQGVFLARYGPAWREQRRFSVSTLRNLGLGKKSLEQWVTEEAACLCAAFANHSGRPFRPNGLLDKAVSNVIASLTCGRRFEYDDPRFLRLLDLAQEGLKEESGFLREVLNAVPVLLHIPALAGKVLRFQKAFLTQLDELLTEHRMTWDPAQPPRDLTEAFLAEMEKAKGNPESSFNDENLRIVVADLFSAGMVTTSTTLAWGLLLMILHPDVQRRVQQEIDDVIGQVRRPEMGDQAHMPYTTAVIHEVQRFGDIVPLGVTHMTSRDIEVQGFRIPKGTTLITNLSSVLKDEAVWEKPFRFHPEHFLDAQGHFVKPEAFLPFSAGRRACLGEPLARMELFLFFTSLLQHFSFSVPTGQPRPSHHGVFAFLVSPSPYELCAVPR

Cytochrome P450 1A2 = target: T2, Cytochrome P450 1A2 (Homo sapiens, UniProt P05177);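 further: PubChem cytochrome P450 panel assay, CYP1A2 panel member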
T2 sequence (P05177 whole entry): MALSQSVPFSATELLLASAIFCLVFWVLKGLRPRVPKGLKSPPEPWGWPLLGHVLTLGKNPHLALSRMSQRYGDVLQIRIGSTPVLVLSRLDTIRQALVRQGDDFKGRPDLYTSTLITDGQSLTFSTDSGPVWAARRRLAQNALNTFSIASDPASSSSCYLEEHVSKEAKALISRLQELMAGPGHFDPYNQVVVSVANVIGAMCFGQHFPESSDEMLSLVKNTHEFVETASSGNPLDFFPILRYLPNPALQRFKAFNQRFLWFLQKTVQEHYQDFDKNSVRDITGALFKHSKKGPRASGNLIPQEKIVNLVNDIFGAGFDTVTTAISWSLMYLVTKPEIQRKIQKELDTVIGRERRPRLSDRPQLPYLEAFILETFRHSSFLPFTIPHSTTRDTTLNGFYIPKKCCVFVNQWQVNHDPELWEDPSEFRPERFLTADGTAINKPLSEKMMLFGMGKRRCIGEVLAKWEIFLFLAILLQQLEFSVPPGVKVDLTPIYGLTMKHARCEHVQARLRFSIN

[11] = system: Streptococcus sp. 'group A'; assay: growth inhibition of control SK(-) GAS strain, dose response, counter-screen for streptokinase expression inhibitor project, luminescence, kanamycin, BacTiterGlo, confirmation (AID 1900); format: functional, organism-based
[12] = Luminescence-based counterscreen assay for KLF5 inhibitors: dose response cell-based high throughput screening assay to identify cytotoxic compounds using the IEC-6 intestinal epithelial cell line. [Related pubchem assays: 1700 (Primary screen.), 1834 (Confirmation screen.), 1858 (Summary AID.), 1905 (Counterscreen.)]; format: functional
Streptococcus = assay: Group A Streptococcus viability loss, dose response, counter-screen for streptokinase expression inhibitor project, luminescence, BacTiterGlo (AID 1915); format: functional, organism-based;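 further: potency for reduction of bacterial viability or growth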
Nonstructural protein 1 = Nonstructural protein 1 (Influenza A virus, UniProt Q194T2); format: functional, Influenza A virus (A/California/07/2009(H1N1))
Chain of Nonstructural protein 1 (Q194T2 whole entry): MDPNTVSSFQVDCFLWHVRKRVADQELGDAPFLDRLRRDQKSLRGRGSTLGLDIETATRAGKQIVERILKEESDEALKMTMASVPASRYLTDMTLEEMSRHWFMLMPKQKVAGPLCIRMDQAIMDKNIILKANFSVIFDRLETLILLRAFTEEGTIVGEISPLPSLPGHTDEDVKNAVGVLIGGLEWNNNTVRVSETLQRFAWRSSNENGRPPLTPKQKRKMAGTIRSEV

INS1 = assay: beta cell apoptosis inhibitors, cytokine rescue, dose response, luminescence, retest (AID 449756); format: functional, cell-based; conditions: Rattus norvegicus, INS1;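 further: cell death triggered by IL-1 beta plus TNF-alpha plus IFN-gamma mixture; protective hits raise ATP signal compared with cytokine alone wells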
[13] = target: T3, Microphthalmia-associated transcription factor (Homo sapiens, UniProt O75030); assay: TRPM1 promoter luciferase signal decrease, dose response, MITF inhibitor project, cell-based, SK-MEL-5, cherry-picked, set 3 (AID 493073); format: functional
T3 sequence (O75030 whole entry): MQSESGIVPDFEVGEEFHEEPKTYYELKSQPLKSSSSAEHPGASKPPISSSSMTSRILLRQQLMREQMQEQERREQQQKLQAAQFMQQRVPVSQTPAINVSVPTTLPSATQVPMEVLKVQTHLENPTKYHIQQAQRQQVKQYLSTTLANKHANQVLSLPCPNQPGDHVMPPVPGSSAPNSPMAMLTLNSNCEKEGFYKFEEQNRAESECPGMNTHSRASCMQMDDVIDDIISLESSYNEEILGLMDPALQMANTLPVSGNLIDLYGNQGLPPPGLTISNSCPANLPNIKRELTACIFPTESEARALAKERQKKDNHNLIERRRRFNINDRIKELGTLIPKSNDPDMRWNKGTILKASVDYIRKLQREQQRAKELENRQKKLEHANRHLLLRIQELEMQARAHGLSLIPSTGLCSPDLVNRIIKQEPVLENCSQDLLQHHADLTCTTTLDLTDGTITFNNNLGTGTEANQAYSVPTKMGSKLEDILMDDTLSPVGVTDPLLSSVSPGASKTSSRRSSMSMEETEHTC

[14] = Fluorescence-based cell-based high throughput dose response assay for inhibitors of the interaction of nucleotide-binding oligomerization domain containing 2 (NOD2) and the receptor-interacting serine-threonine kinase 2 (RIPK2).; format: functional; conditions: Homo sapiens
[15] = target: T4, Rac GTPase-activating protein 1 (Homo sapiens, UniProt Q9H0H5); assay: MgcRacGAP GTPase-activating activity inhibitors, confirmation, biochemical, ADP Hunter fluorescence, primary and confirmatory (AID 624330); format: functional
T4 sequence (Q9H0H5 whole entry): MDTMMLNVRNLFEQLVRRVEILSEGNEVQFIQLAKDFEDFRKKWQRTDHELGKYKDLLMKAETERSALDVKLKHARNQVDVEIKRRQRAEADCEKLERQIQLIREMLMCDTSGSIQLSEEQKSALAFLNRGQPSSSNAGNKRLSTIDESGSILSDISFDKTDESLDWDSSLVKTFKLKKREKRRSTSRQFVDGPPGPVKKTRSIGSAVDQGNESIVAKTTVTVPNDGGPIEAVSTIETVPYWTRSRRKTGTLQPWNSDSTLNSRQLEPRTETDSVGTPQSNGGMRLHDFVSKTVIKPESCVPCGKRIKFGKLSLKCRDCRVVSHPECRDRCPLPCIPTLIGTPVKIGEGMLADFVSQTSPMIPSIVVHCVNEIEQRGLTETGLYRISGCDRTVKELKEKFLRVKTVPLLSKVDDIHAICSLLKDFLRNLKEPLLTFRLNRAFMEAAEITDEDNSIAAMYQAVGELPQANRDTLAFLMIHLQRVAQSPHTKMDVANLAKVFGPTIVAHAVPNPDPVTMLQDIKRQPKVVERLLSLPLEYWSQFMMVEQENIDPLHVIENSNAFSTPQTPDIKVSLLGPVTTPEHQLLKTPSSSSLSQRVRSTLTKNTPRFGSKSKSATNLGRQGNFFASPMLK

[16] = intracellular Trypanosoma cruzi inhibitors in host cells – cell-based, plate reader, cherry-pick samples, set 3, dose response (AID 651818); format: functional;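 further: compounds incubated with infected cells for about four days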
Protein Wnt-3a = Protein Wnt-3a (Mus musculus, UniProt P27467); assay: Wnt3a-driven reporter signaling inhibition, dose response, selectivity assay for Gli-SUFU antagonist project, Wnt-LIGHT cells, luminescence (AID 651570); format: functional; conditions: read-out: IC50_Mean;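 further: Wnt-LIGHT reporter cells stimulated with conditioned medium from Wnt3a-producing cells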
Chain of Protein Wnt-3a (P27467 whole entry): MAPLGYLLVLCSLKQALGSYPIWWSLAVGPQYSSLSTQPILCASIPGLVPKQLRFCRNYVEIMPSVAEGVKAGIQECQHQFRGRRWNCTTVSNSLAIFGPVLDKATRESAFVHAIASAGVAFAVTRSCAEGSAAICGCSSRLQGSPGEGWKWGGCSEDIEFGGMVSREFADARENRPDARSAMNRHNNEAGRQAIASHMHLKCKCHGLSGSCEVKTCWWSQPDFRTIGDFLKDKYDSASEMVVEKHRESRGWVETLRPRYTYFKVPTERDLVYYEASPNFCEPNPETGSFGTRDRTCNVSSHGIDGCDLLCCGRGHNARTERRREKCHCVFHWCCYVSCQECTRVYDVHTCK

[17] = target: T5, Histone-lysine N-methyltransferase NSD2 (Homo sapiens, UniProt O96028); format: biochemical
T5 sequence (O96028 whole entry): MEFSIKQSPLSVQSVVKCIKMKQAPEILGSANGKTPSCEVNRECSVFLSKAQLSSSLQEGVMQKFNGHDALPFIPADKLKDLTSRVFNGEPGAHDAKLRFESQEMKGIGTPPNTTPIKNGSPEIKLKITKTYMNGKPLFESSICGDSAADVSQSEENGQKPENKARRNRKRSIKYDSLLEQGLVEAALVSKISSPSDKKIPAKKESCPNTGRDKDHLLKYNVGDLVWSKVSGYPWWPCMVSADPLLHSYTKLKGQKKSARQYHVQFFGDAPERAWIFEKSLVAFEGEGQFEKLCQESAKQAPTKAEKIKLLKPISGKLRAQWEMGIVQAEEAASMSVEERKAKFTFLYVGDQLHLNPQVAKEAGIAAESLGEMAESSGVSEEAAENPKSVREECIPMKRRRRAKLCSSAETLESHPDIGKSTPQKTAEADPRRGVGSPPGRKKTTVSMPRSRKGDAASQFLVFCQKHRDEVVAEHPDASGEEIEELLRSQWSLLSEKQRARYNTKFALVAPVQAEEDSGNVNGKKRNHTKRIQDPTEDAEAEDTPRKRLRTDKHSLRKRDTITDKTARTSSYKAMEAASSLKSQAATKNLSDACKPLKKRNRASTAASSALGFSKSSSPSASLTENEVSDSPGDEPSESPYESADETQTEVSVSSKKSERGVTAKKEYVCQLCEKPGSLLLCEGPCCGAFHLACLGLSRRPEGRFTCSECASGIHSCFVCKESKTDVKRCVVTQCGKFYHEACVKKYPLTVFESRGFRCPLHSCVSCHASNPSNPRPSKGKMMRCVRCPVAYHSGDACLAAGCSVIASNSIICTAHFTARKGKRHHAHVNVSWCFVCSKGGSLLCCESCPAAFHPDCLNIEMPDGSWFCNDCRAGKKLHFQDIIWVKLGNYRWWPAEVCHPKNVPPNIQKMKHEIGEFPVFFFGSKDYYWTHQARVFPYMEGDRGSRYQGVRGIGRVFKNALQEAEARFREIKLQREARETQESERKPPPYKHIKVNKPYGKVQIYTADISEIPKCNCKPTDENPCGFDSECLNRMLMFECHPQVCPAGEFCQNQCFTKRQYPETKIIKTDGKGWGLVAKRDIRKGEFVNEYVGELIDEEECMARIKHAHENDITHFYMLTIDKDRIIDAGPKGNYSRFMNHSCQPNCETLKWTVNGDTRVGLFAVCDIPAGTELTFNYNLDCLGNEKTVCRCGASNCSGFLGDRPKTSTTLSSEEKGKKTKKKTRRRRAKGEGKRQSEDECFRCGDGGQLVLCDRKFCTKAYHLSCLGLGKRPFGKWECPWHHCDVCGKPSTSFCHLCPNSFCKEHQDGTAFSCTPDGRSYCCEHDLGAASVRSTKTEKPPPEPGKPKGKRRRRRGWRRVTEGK

CCOC(=O)/C(C#N)=C/C(C(=N)N1CCN(c2ccc(OC)cc2)CC1)=C(/O)OCC
IC50 [1]: 139 µM (inactive)

Cc1ccc(/C=C2\SC(=S)N(CCCC(=O)N3CCOCC3)C2=O)cc1
EC50 (BJ [2]): 7.06 µM (inconclusive) | EC50 (BJ [3]): > 150 µM (not active) | EC50 (BJ [4]): > 150 µM (inconclusive) | EC50 [5]: 15.3 µM (active) | EC50 (BJ [6]): > 66.7 µM (inactive)

COc1ccc(Nc2c(-c3ccc(OC)cc3)nc3cnccn23)cc1
AC50 [7]: 1.34 µM (active)

COc1ccc(Cn2ccc(=O)c(Cc3c(Cl)cccc3Cl)c2C)cc1
AC50 [7]: 7.22 µM (active)

COc1ccc(S(=O)(=O)NNC(=O)C2Cc3c(ccc4ccccc34)O2)cc1 (stereo not given)
AC50 (Cytochrome P450 2C19): 5.62 µM (inconclusive) | AC50 (HEK293): > 350 µM (inactive) | AC50 [8]: 74.8 µM (active) | AC50 [9]: 43.7 µM (active) | AC50 [10]: 13.2 µM (active) | AC50 (Cytochrome P450 2D6): 39.8 µM (inconclusive) | AC50 (Cytochrome P450 1A2): 25.1 µM (inconclusive)

O=C(N/N=C/c1cc(Cl)ccc1O)c1cccnc1
EC50 [11]: 1.81 µM (active) | IC50 [12]: > 1.48 µM (active) | EC50 (Streptococcus): 7.97 µM (active) | IC50 (Nonstructural protein 1): 5.8 µM (active) | AC50 [8]: 128 µM (active) | AC50 (INS1): 1.71 µM (active)

CCN(CC)CCC(=O)N1C/C(=C/c2ccccc2)C(=O)/C(=C\c2ccccc2)C1
AC50 [13]: 4.72 µM (active) | AC50 (HEK293): 4.89 µM (active) | IC50 [14]: 3.5 µM (active) | IC50 [15]: 111 µM (active)

C[C@@H]1CN([C@@H](C)CO)C(=O)Cc2cc(NC(=O)Nc3ccc(F)cc3)ccc2O[C@@H]1CN(C)Cc1ccc(C(=O)Nc2ccccc2N)cc1
AC50 [16]: 2.16 µM (active)

CCOC(=O)/C(C#N)=C/Nc1ccccc1OC
IC50 [1]: 155 µM (inactive)

CCN1CCCC1CNc1[nH]cnc2c3cc(Cl)ccc3nc1-2 (stereo not given)
IC50 (Protein Wnt-3a): 50 µM (inactive) | AC50 [17]: > 20 µM (inactive)

C[C@H](CO)N1C[C@H](C)[C@H](CN(C)Cc2ccc3c(c2)OCO3)Oc2c(NC(=O)c3nc4ccccc4s3)cccc2C1=O
AC50 [16]: 4.58 µM (active)
